Values quoted from earlier work as cited in patent US20070059297A1, “Methods and compositions for improving visual acuity” (Nestec, S.A., priority 2005, published 2007).

Test system: rat retina neuronal cells
Settings: in vitro incubation

- DHA content of cells incubated with DHA versus cells incubated with other fatty acids: four- to six-fold more DHA
SMILES: CC/C=C\C/C=C\C/C=C\C/C=C\C/C=C\C/C=C\CCC(=O)O [DHA, docosahexaenoic acid]
